Assay [1] has as its target T1, recombinant BRD4 FL bromodomain (Homo sapiens, UniProt O60885).
T1 construct: fused on or other part: 6xHis tag, inferred from detection with Mab ANTI 6HIS-XL665
In words: BRD4 FL TR-FRET displacement assay. In kind it is binding. As to conditions: BRD4 FL; for IC50: dose-response, read-out: IC50 (group A, B, C); for inhibition at 10 µM: read-out: % Inhibition (10 μM). The protocol:
The potency of compounds to inhibit BRD4 FL enzyme was tested in a TR-FRET displacement assay using recombinant BRD4 FL bromodomain obtained In-house. The assay buffer was 50 mM HEPES (pH 7.5), 50 mM NaCl, 500 μM CHAPS. 10 nM of BRD4 FL & 300 nM of Biotinylated Acetyl histone H4 (Lys 5, 8, 12, 16) (Millipore, USA) was incubated at room temperature for 30 minutes, the reaction was initiated by adding the pre-incubated enzyme ligand mixture to the test compounds. After 30 min incubation, the reaction was stopped by the addition of stop mix containing 1 nM of Europium Streptavidin cryptate (Cisbio, USA) and 5 nM of Mab ANTI 6HIS-XL665 (Cisbio, USA) dilutes in assay buffer containing 2.4M Potassium Fluoride. Fluorescence emission of the samples at 665 and 615 nm were measured at an excitation of 340 nm and their ratio was plotted against the compound concentrations to generate dose-response curve. The percent inhibition of the test compounds is calculated using the ratio of enzyme activity controls.
Selected compounds of the present invention were screened in the above-mentioned assay procedures and IC50 values were determined by fitting the dose-response data to sigmoidal curve fitting equation using Graph pad prism software V7.
Background: In TR-FRET formats the signal depends on donor and acceptor labels being close together.

For assay [2], the target named is T2, recombinant CREBBP bromodomain (Homo sapiens, UniProt Q92793).
T2 construct: recombinant CREBBP bromodomain obtained from BPS Bioscience, USA; purchased BPS Bioscience, USA
T2 sequence (Q92793 1085-1192 limits assumed): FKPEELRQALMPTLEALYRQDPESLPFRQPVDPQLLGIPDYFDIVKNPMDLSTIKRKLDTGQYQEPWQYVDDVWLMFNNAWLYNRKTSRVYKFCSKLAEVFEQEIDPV
In words: CBP TR-FRET displacement assay. It is filed as binding. As to conditions: for inhibition at 10 µM: compound at 10 μM; for IC50: dose-response, read-out: IC50 (group A, B, C). As to the method:
The potency of compounds to inhibit CREBBP enzyme was tested in a TR-FRET displacement assay using recombinant CREBBP bromodomain obtained from BPS Bioscience, USA. The assay buffer was 50 mM HEPES (pH 7.5), 50 mM NaCl, 0.008% Brij 35, 0.01% BSA, 1 mM TCEP. 50 nM of CREBBP & 500 nM of Biotinylated ligand was incubated at room temperature for 30 minutes, the reaction was initiated by adding pre-incubated enzyme ligand mixture to the test compounds. After 60 min incubation, the reaction was stopped by the addition of stop mix containing 1 nM of LANCE Europium-anti-6xHis antibody (Perkin Elmer, USA) and 40 nM of Sure Light Allophycocyanin-Streptavidin (Perkin Elmer, USA). Fluorescence emission of the samples at 665 and 615 nm were measured at an excitation of 340 nm and their ratio was plotted against the compound concentrations to generate dose-response curve. The percent inhibition of the test compounds is calculated using the ratio of enzyme activity controls.
elected compounds of the present invention were screened in the above-mentioned assay procedures and IC50 values were determined by fitting the dose-response data to sigmoidal curve fitting equation using Graph pad prism software V7.

Structures are written as SMILES.

As a reminder, the IC50 is the concentration needed to halve the response being measured. As to `COc1cc(N2CCN(C)c3ccc([S+](C)[O-])cc32)c2cc(C)c(=O)n(C)c2c1` (single isomer, unassigned) [Example 249], in assay [1], the IC50 fell in the range of 2.01 to 5 µM.

By inhibition is commonly meant the share of the control response that was lost under treatment. Turning to `Cc1cc2c(N3CCCN(C)c4cc(-c5cnn(C)c5)c(C#N)cc43)cccc2[nH]c1=O` [Example 5], the inhibition at 10 µM amounted to 38% in assay [2] and 48% in assay [1] (compound at 10 μM).

On to `CNC(=O)C1CCN(c2cc3c(cc2C#N)N(c2cc(OC)cc4c2cc(C)c(=O)n4C)CCN3C)CC1` [Example 26], for which the IC50 in assay [2] was less than 0.05 µM. Besides, the inhibition at 10 µM in assay [1] (compound at 10 μM) stood at 24%.

Take `CNC(=O)C1CN(c2cc3c(cc2C#N)N(c2cc(OC)cc4c2cc(C)c(=O)n4C)CCN3C)C1` [Example 27]: the results for the half-maximal inhibitory concentration (IC50) in assay [2] and in assay [1] were 0.051 to 0.1 µM and 2.01 to 5 µM, respectively.

As to `COc1cc(N2CCN(C)c3cc(N4CCC(C)(N)CC4)c(C#N)cc32)c2cc(C)c(=O)n(C)c2c1` [Example 29], the 50% inhibitory concentration (IC50) is less than 0.05 µM in assay [2] and 2.01 to 5 µM in assay [1].

`CNC(=O)c1ccc(-c2cc3c(cc2F)N(c2cc(OC)cc4c2cc(C)c(=O)n4C)CCN3C)cn1` [Example 31]: the IC50 was less than 0.05 µM in assay [2] and 2.01 to 5 µM in assay [1].

For `CNC(=O)C1CCN(c2cc3c(cc2F)N(c2cc(OC)cc4c2cc(C)c(=O)n4C)CCN3C)CC1` [Example 33], the concentration for half-maximal inhibition (IC50) in assay [2] is 0.051 to 0.1 µM; in assay [1], 2.01 to 5 µM.

For the compound `CCn1c(=O)c(C)cc2c(N3CCN(C)c4cc(-c5cnn(C)c5)c(C#N)cc43)cccc21` [Example 46], in assay [2], the inhibition at 10 µM was 98% and the half-inhibitory concentration (IC50) is greater than 0.01 µM. For the same compound, in assay [1], the IC50 lay in the range of 2.01 to 5 µM.

`CN1CCN(c2cccc3c2ccc(=O)n3C)c2cc(C#N)c(-c3cnn(C)c3)cc21` [Example 51]: in assay [2], the inhibition at 10 µM is 99%. Further, in assay [1], the half-inhibitory concentration (IC50) lay in the range of 2.01 to 5 µM.

In the case of `CN1CCN(c2cccc3[nH]c(=O)ccc23)c2cc(C#N)c(-c3cnn(C)c3)cc21` [Example 52], the inhibition at 10 µM in assay [2] worked out at 83%; in assay [1] (compound at 10 μM), 35%.

Turning to `CNC(=O)N1CCN(c2cc(OC)cc3c2cc(C)c(=O)n3C)c2cc(C#N)c(-c3cnn(C)c3)cc21` [Example 65, 6-Cyano-4-(7-methoxy-1,3-dimethyl-2-oxo-1,2-dihydroquinolin-5-yl)-N-methyl-7-(1-methyl-1H-pyrazol-4-yl)-3,4-dihydroquinoxaline-1(2H)-carboxamide], the 50% inhibitory concentration (IC50) is less than 0.05 µM in assay [2] and 2.01 to 5 µM in assay [1].

On to `CCOC(=O)CN1CCN(c2cc(OC)cc3c2cc(C)c(=O)n3C)c2cc(C#N)c(-c3cnn(C)c3)cc21` [Example 66, Ethyl 2-(6-cyano-4-(7-methoxy-1,3-dimethyl-2-oxo-1,2-dihydroquinolin-5-yl)-7-(1-methyl-1H-pyrazol-4-yl)-3,4-dihydroquinoxalin-1(2H)-yl)acetate], for which the values for the IC50 in assay [2] and in assay [1] were less than 0.05 µM and 2.01 to 5 µM, respectively.

For the compound `COc1cc(N2CCN(C)c3cc(C4CCN(C)CC4)c(C#N)cc32)c2cc(C)c(=O)n(C)c2c1` [Example 70, 4-(7-Methoxy-1,3-dimethyl-2-oxo-1,2-dihydroquinolin-5-yl)-1-methyl-7-(1-methylpiperidin-4-yl)-1,2,3,4-tetrahydroquinoxaline-6-carbonitrile], the figures for the IC50 in assay [2] and in assay [1] were 0.051 to 0.1 µM and 2.01 to 5 µM, respectively.

For `CONC(=O)COc1cc(N2CCN(C)c3cc(-c4cnn(C)c4)ccc32)c2cc(C)c(=O)n(C)c2c1` [Example 73, 2-((1,3-Dimethyl-5-(4-methyl-6-(1-methyl-1H-pyrazol-4-yl)-3,4-dihydroquinoxalin-1(2H)-yl)-2-oxo-1,2-dihydroquinolin-7-yl)oxy)-N-methoxyacetamide], the IC50 in assay [2] is less than 0.05 µM; in assay [1], 2.01 to 5 µM.

For the compound `COc1cc(N2CCN(C)c3ccc(C(C)=O)cc32)c2cc(C)c(=O)n(C)c2c1` [Example 79, 5-(7-Acetyl-4-methyl-3,4-dihydroquinoxalin-1(2H)-yl)-7-methoxy-1,3-dimethylquinolin-2(1H)-one], in assay [2], the 50% inhibitory concentration (IC50) is 0.051 to 0.1 µM. The inhibition at 10 µM in assay [1] (compound at 10 μM) is 56%.

Turning to `Cc1cc2c(N3CCN(C)c4ccc(C#N)cc43)cc(OCC(=O)O)cc2n(C)c1=O` [Example 82, 2-((5-(7-Cyano-4-methyl-3,4-dihydroquinoxalin-1(2H)-yl)-1,3-dimethyl-2-oxo-1,2-dihydroquinolin-7-yl)oxy)acetic acid], the concentration for half-maximal inhibition (IC50) in assay [2] lay within 0.051 to 0.1 µM; in assay [1], 2.01 to 5 µM.

On to `COc1cc(N2CCN(C)c3ccc(CC(=O)NO)cc32)c2cc(C)c(=O)n(C)c2c1` [Example 83, N-hydroxy-2-(4-(7-methoxy-1,3-dimethyl-2-oxo-1,2-dihydroquinolin-5-yl)-1-methyl-1,2,3,4-tetrahydroquinoxalin-6-yl)acetamide], for which the IC50 in assay [2] is greater than 0.01 µM; in assay [1], 2.01 to 5 µM.

With `Cc1cc2c(N3CCN(C)c4ccc(S(N)(=O)=O)cc43)cccc2n(C)c1=O` [Example 85, 4-(1,3-dimethyl-2-oxo-1,2-dihydroquinolin-5-yl)-1-methyl-1,2,3,4-tetrahydroquinoxaline-6-sulfonamide], the IC50 in assay [2] was 0.051 to 0.1 µM; in assay [1], 2.01 to 5 µM.

Turning to `Cc1cc2c(N3CCN(C)c4cc(F)c(S(N)(=O)=O)cc43)cccc2n(C)c1=O` [Example 87], the IC50 fell in the range of 0.051 to 0.1 µM in assay [2] and 2.01 to 5 µM in assay [1].

For the compound `Cc1cc2c(N3CCN(C)c4ccc(S(N)(=O)=O)cc43)cc(N3CC[C@@H](O)C3)cc2n(C)c1=O` [Example 92, (R)-4-(7-(3-Hydroxypyrrolidin-1-yl)-1,3-dimethyl-2-oxo-1,2-dihydroquinolin-5-yl)-1-methyl-1,2,3,4-tetrahydroquinoxaline-6-sulfonamide], the IC50 in assay [1] lay within 2.01 to 5 µM.

For the compound `COc1cc(N2CCN(C)c3cc(N4CCN(C(C)=O)CC4)ncc32)c2cc(C)c(=O)n(C)c2c1` [Example 119], the half-inhibitory concentration (IC50) in assay [1] was 2.01 to 5 µM.

`COc1cc(N2CCN(C)c3cc(N4CCCC(C#N)C4)ncc32)c2cc(C)c(=O)n(C)c2c1` (stereo not shown) [Example 120]: the inhibition at 10 µM in assay [1] (compound at 10 μM) turned out to be 34%.

For the compound `COc1cc(N2CCN(C)c3cc(N4CCCC(NC(C)=O)C4)ncc32)c2cc(C)c(=O)n(C)c2c1` (stereo not shown) [Example 122], the inhibition at 10 µM in assay [1] (compound at 10 μM) came out at 33%.

Take `Cc1cc2c(N3CCN(C)c4cc(C5CCOC5)ncc43)cc(N3CCOCC3)cc2n(C)c1=O` (stereo not shown) [Example 137]: in assay [1] (compound at 10 μM), the inhibition at 10 µM came to 26%.

In the case of `Cc1cc2c(N3CCN(C)c4cc(C5CC5)ncc43)cc(N3CCOCC3)cc2n(C)c1=O` [Example 138], the IC50 in assay [1] is 2.01 to 5 µM.

With `Cc1cc2c(N3CCN(C)c4cc(N5CCCCC5)ncc43)cc(N3CCOCC3)cc2n(C)c1=O` [Example 139], the inhibition at 10 µM in assay [1] (compound at 10 μM) came out at 43%.

In the case of `Cc1cc2c(N3CCN(C)c4cc(-c5cnn(C)c5)ncc43)cc(N3CCCC(C#N)C3)cc2n(C)c1=O` (stereo not shown) [Example 149], the concentration for half-maximal inhibition (IC50) in assay [1] is 2.01 to 5 µM.

Consider `COc1cc(N2CCCc3ccc(NC(C)=O)cc32)c2cc(C)c(=O)n(C)c2c1` [Example 196, N-(7′-methoxy-1′,3′-dimethyl-2′-oxo-1′,2′,3,4-tetrahydro-2H-[1,5′-biquinolin]-7-yl)acetamide], for which the half-maximal inhibitory concentration (IC50) in assay [1] lay in the range of 2.01 to 5 µM.

In the case of `COc1cc(N2CCCc3ccc(-c4cn[nH]c4)cc32)c2cc(C)c(=O)n(C)c2c1` [Example 198, 7′-Methoxy-1′,3′-dimethyl-7-(1H-pyrazol-4-yl)-3,4-dihydro-2H-[1,5′-biquinolin]-2′(1′H)-one], in assay [1], the IC50 fell in the range of 2.01 to 5 µM.

For the compound `COc1cc(N2CCCc3ccc(S(=O)(=O)NC(C)=O)cc32)c2cc(C)c(=O)n(C)c2c1` [Example 199, N-((T-methoxy-1′,3′-dimethyl-2′-oxo-1′,2′,3,4-tetrahydro-2H-[1,5′-biquinolin]-7 yl)sulfonyl)acetamide], the “% Inhibition (10 μM)” value in assay [1] (compound at 10 μM) was 45%.

For the compound `CNC(=O)c1ccc(-c2cc3c(cc2C(F)F)N(c2nc(N4CCOCC4)cc4c2cc(C)c(=O)n4C)CCC3)cn1` [Example 203], the IC50 in assay [1] was 2.01 to 5 µM.

On to `Cc1cc2c(N3CCCc4cc(-c5cnn(C)c5)c(C(F)F)cc43)nc(-n3ccnc3)cc2n(C)c1=O` [Example 204], for which, in assay [1] (compound at 10 μM), the inhibition at 10 µM was found to be 12%.

With `COc1cc2c(cc1-c1cnn(C)c1)CCCN2c1nc(N2CCC(S(N)(=O)=O)C2)cc2c1cc(C)c(=O)n2C` (stereo not shown) [Example 246, 1-(5-(7-Methoxy-6-(1-methyl-1H-pyrazol-4-yl)-3,4-dihydroquinolin-1(2H)-yl)-1,3-dimethyl-2-oxo-1,2-dihydro-1,6-naphthyridin-7-yl)pyrrolidine-3-sulfonamide], the IC50 in assay [2] is 0.051 to 0.1 µM.
